From ChEMBL document CHEMBL1141753, “Cytotoxic diterpenoids from the soft coral Sinularia microclavata” (J Nat Prod, 2005)
Values after ≈ are worked out from the molar mass of the structure shown.

Legend:
Format in all cases: functional, cell-based
[1] = system: A549; test: Cytotoxicity against human A549 cells by MTT assay
[2] = system: KB; test: Cytotoxicity against human KB cells by MTT assay
[3] = system: MCF7; test: Cytotoxicity against human MCF7 cells by MTT assay

SMILES | IC50 [1] [µg/mL] | IC50 [2] [µg/mL] | IC50 [3] [µg/mL]
C=C1C(=O)O[C@]2(C)CC[C@@H]1C[C@@H](O)[C@@](C)(O)CC/C=C(\C)CC[C@@H]2O [CAPILLOLIDE] | 0.5 (≈ 1.42 µM) |  | 
C/C1=C\[C@@H]2[C@H](CC[C@H](C)CC(=O)[C@@H]3O[C@]3(C)/C=C/C1=O)C2(C)C [MICROCLAVATIN] |  | 5 (≈ 15.8 µM) | 20 (≈ 63.2 µM)
